Test [1] deals with T1, P2X7 (Homo sapiens (Human), UniProt Q99572). The experiment in a line: P2X7 antagonism in human whole blood (IL-1β release, ELISA). Format: cell-based. The note with it: IL-1β release in human blood, LPS 30 ng/ml + Bz-ATP 1 mM. The protocol:
Human blood was collected using a blood donor program. […] Cells were incubated for an additional 1.5 hours.
In general terms: ELISA stands for enzyme-linked immunosorbent assay.

Test [2] addresses T1, P2X7. Nature of the test: Radioligand binding, human P2X7-1321N1 cell membranes, tracer tritiated A-804598. On the procedure:
(§1) On the day of the experiment, cell membrane preparations were made according to standard published methods. […] The compound can be prepared as described in the literature. […] The assay was terminated by filtration (GF/B filters pre-soaked with 0.3% PEI) and washed with washing buffer (Tris-HCl 50 mM). The IC50 generated in the binding assay was corrected for tracer concentration and affinity of the tracer to derive at the affinity (Ki) of the test compounds.

The target of test [3] is T2, rat P2X7 (Rattus norvegicus (Rat), UniProt Q64663). Nature of the test: Radioligand binding, rat P2X7-1321N1 cell membranes, tracer tritiated A-804598. The protocol:
as §1

Test [4] deals with T1, P2X7. The experiment in a line: Ca2+ flux (FLIPR) in 1321N1 cells expressing recombinant human P2X7 channel. The following applies: 250 μM BzATP, Calcium-4 dye. The test is classed as cell-based. In outline: (§2)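 1321N1 cells stably expressing P2X7 were loaded with Calcium-4 dye for 60 min in HEPES-buffered saline (pH 7.40, 1 mM CaCl2, 1 mM MgCl2), then preincubated with test compounds for 30 min. Fluorescence change was read 180 s after agonist addition.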
Background: A change in cytosolic calcium serves as a functional read-out for many receptors and channels.

Test [5] addresses T2, rat P2X7. The experiment in a line: Ca2+ flux (FLIPR) in 1321N1 cells expressing recombinant rat P2X7 channel. The test is classed as cell-based. The following applies: 250 μM BzATP, Calcium-4 dye. In outline: as §2
The target of test [6] is T1, P2X7. Nature of the test: P2X7 antagonism in human PBMCs (IL-1β release, ELISA). The note with it: test compound 10 μM, IL-1β release in human PBMCs, LPS 30 ng/ml + Bz-ATP 0.5 mM, read-out: PBMC 10 μM (% control). Format: cell-based. On the procedure:
Human blood was collected using a blood donor program. […] Cells were incubated for an additional 1.5 hours. […] In Table 2, when the data cell has been left blank, it is intended to mean that the compound was not tested in that assay.

Where [7] appears, read: human P2X7-1321N1 membranes, 1 hour at 4° C., IC50 corrected for tracer concentration and affinity.
Where [8] appears, read: rat P2X7-1321N1 membranes, 1 hour at 4° C., IC50 corrected for tracer concentration and affinity.

Where two headings read alike, the source gives them in different places.

A word on the IC50: it is the point on the concentration scale where inhibition reaches its midpoint. The Ki is a dissociation constant, usually derived from enzyme kinetics or from competition with a known ligand. The low end stands for higher affinity, the high end for lower affinity.

T1 sequence (Q99572 whole entry): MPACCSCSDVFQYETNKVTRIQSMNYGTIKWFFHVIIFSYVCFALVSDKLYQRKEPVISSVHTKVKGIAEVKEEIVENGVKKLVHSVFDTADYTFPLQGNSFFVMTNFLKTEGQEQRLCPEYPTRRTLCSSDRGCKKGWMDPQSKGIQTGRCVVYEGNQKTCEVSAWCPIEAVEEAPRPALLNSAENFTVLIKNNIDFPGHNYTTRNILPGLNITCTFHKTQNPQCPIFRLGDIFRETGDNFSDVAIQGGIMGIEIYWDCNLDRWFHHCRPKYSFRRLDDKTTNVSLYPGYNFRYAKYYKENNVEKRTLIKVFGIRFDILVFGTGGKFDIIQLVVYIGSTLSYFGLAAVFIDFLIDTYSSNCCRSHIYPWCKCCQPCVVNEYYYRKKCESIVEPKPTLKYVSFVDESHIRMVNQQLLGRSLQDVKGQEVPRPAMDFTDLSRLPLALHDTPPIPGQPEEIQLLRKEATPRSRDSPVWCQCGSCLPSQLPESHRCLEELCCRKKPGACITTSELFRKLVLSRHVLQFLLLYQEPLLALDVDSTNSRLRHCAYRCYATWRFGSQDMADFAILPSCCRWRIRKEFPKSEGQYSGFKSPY
T2 sequence (Q64663 whole entry): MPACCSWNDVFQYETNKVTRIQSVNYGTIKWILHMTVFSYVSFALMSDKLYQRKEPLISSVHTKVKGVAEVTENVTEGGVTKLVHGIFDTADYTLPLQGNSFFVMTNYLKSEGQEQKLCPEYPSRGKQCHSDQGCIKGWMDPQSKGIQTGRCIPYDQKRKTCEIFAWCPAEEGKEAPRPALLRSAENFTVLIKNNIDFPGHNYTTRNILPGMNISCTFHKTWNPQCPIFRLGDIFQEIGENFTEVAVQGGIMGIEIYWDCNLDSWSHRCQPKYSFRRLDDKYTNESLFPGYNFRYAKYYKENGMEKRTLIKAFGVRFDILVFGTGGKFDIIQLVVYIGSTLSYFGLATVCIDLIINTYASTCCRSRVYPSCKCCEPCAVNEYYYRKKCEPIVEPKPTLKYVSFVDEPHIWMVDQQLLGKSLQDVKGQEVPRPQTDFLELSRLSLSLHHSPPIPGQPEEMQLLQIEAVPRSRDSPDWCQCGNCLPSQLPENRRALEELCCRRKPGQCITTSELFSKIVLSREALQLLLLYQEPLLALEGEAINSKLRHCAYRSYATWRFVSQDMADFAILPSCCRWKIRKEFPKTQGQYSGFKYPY

`O=C(c1cccc(Cl)c1Cl)N1CCc2c(ncnc2-n2nccn2)C1` [Example 23, 7-[(2,3-Dichlorophenyl)carbonyl]-4-(2H-1,2,3-triazol-2-yl)-5,6,7,8-tetrahydropyrido[3,4-d]pyrimidine]: the IC50 on P2X7 [1] worked out at 1120 nM.

For `O=C(c1cccc(C(F)(F)F)c1Cl)N1CCc2c(ncnc2-c2ccccn2)C1` [Example 12, 7-{[2-Chloro-3-(trifluoromethyl)phenyl]carbonyl}-4-pyridin-2-yl-5,6,7,8-tetrahydropyrido[3,4-d]pyrimidine], the half-inhibitory concentration (IC50) on P2X7 [1] stood at 2000 nM; at P2X7 [4], 28.1 nM; on rat P2X7 [5], 5970 nM. Besides, the Ki was 58.9 nM on P2X7 [2] (setting [7]) and 57.5 nM at rat P2X7 [3] (setting [8]).

Take `Cn1ccc(-c2ncnc3c2CCN(C(=O)c2cccc(C(F)(F)F)c2Cl)C3)n1` [Example 19, 7-{[2-Chloro-3-(trifluoromethyl)phenyl]carbonyl}-4-(1-methyl-1H-pyrazol-3-yl)-5,6,7,8-tetrahydropyrido[3,4-d]pyrimidine]: on P2X7 [6], the remaining activity at 10 µM came to 13.8%. Also, the 50% inhibitory concentration (IC50) was 630 nM at P2X7 [1], 26.1 nM at P2X7 [4] and 9.9 nM on rat P2X7 [5]. Also, on P2X7 [2] (setting [7]), the inhibition constant Ki worked out at 25.1 nM.

As for `Cc1nc2c(c(-c3ccn(CCF)n3)n1)C[C@@H](C)N(C(=O)c1cccc(C(F)(F)F)c1Cl)C2` (single isomer, unassigned) [Example 124, (R*)-(2-chloro-3-(trifluoromethyl)phenyl)(4-(1-(2-fluoroethyl)-1H-pyrazol-3-yl)-2,6-dimethyl-5,6-dihydropyrido[3,4-d]pyrimidin-7(8H)-yl)methanone], the results for the Ki at P2X7 [2] and on rat P2X7 [3] were 25.1 nM and 3.5 nM, respectively. Besides, the IC50 on P2X7 [4] is 31 nM; at rat P2X7 [5], 12.9 nM.

With `O=C(c1cccc(C(F)(F)F)c1Cl)N1CCc2c(ncnc2-c2cscn2)C1` [Example 43, 7-{[2-Chloro-3-(trifluoromethyl)phenyl]carbonyl}-4-(1,3-thiazol-4-yl)-5,6,7,8-tetrahydropyrido[3,4-d]pyrimidine], the inhibition constant Ki at P2X7 [2] (setting [7]) was determined as 50.1 nM; on rat P2X7 [3] (setting [8]), 10 nM. For the same molecule, the 50% inhibitory concentration (IC50) came out at 15.8 nM at P2X7 [4] and 158 nM at rat P2X7 [5].

For the molecule `COCCn1ccc(-c2nc(C)nc3c2C[C@@H](C)N(C(=O)c2cccc(C(F)(F)F)c2Cl)C3)n1` (single isomer, unassigned) [Example 128, (R*)-(2-chloro-3-(trifluoromethyl)phenyl)(4-(1-(2-methoxyethyl)-1H-pyrazol-3-yl)-2,6-dimethyl-5,6-dihydropyrido[3,4-d]pyrimidin-7(8H)-yl)methanone], the Ki at P2X7 [2] was found to be 31.6 nM; on rat P2X7 [3] it was 3 nM. The results for the IC50 on P2X7 [4] and at rat P2X7 [5] were 29.6 nM and 9.7 nM, respectively.

For `O=C(c1cccc(Cl)c1Cl)N1CCc2c(ncnc2-c2ccccc2)C1` [Example 2, 7-[(2,3-Dichlorophenyl)carbonyl]-4-phenyl-5,6,7,8-tetrahydropyrido[3,4-d]pyrimidine], the values for the inhibition constant Ki on P2X7 [2] (setting [7]) and on rat P2X7 [3] (setting [8]) were 95.5 nM and 251 nM, respectively. For the same molecule, the concentration for half-maximal inhibition (IC50) on P2X7 [4] came out at 36.5 nM; at rat P2X7 [5], 3240 nM.

In the case of `O=C(c1cccc(Cl)c1Cl)N1CCc2c(ncnc2-c2ccn[nH]2)C1` [Example 7, 7-[(2,3-Dichlorophenyl)carbonyl]-4-(1H-pyrazol-5-yl)-5,6,7,8-tetrahydropyrido[3,4-d]pyrimidine], the values for the IC50 at P2X7 [1], at P2X7 [4] and on rat P2X7 [5] were 560 nM, 20.7 nM and 489 nM, respectively. The Ki worked out at 15.4 nM at P2X7 [2] (setting [7]) and 14.5 nM at rat P2X7 [3] (setting [8]).

`Cc1c(C(=O)N2CCc3c(ncnc3-c3cnccn3)C2)cccc1C(F)(F)F` [Example 15, 7-{[2-Methyl-3-(trifluoromethyl)phenyl]carbonyl}-4-pyrazin-2-yl-5,6,7,8-tetrahydropyrido[3,4-d]pyrimidine]: the figures for the Ki on P2X7 [2] (setting [7]) and on rat P2X7 [3] (setting [8]) were 79.4 nM and 50.1 nM, respectively. Also, the half-maximal inhibitory concentration (IC50) on P2X7 [4] was 31.6 nM; on rat P2X7 [5], 6310 nM.

Take `Cc1nc2c(c(-c3ccn[nH]3)n1)CCN(C(=O)c1cccc(Cl)c1Cl)C2` [Example 34, 7-[(2,3-Dichlorophenyl)carbonyl]-2-methyl-4-(1H-pyrazol-5-yl)-5,6,7,8-tetrahydropyrido[3,4-d]pyrimidine]: the Ki at P2X7 [2] (setting [7]) was determined as 63.1 nM; at rat P2X7 [3] (setting [8]), 20 nM. Also, the figures for the half-maximal inhibitory concentration (IC50) at P2X7 [4] and at rat P2X7 [5] were 86.1 nM and 2020 nM, respectively.

On to `Cc1nc2c(c(-c3[nH]ncc3C(F)(F)F)n1)CCN(C(=O)c1cccc(C(F)(F)F)c1Cl)C2` [Example 39, 7-{[2-Chloro-3-(trifluoromethyl)phenyl]carbonyl}-2-methyl-4-[4-(trifluoromethyl)-1H-pyrazol-5-yl]-5,6,7,8-tetrahydropyrido[3,4-d]pyrimidine], for which the figures for the inhibition constant Ki on P2X7 [2] (setting [7]) and at rat P2X7 [3] (setting [8]) were 50.1 nM and 17.8 nM, respectively. For the same molecule, the half-inhibitory concentration (IC50) at P2X7 [4] came to 100 nM; at rat P2X7 [5], 25.1 nM.

For the molecule `O=C(c1cccc(Cl)c1Cl)N1CCc2c(ncnc2-c2cnccn2)C1` [Example 14, 7-[(2,3-Dichlorophenyl)carbonyl]-4-pyrazin-2-yl-5,6,7,8-tetrahydropyrido[3,4-d]pyrimidine], the inhibition constant (Ki) on P2X7 [2] (setting [7]) turned out to be 63.1 nM; at rat P2X7 [3] (setting [8]), 31.6 nM. Also, the figures for the IC50 on P2X7 [4] and at rat P2X7 [5] were 25.1 nM and 3160 nM, respectively.

Regarding `O=C(c1ccc(Cl)c(F)c1Cl)N1CCc2c(ncnc2-c2ccn[nH]2)C1` [Example 20, 7-[(2,4-Dichloro-3-fluorophenyl)carbonyl]-4-(1H-pyrazol-5-yl)-5,6,7,8-tetrahydropyrido[3,4-d]pyrimidine], at P2X7 [6], the remaining activity at 10 µM was -0.2%. Besides, the IC50 at P2X7 [1] stood at 1230 nM; on P2X7 [4] it was 5.9 nM; on rat P2X7 [5], 338 nM. Further, the inhibition constant (Ki) on P2X7 [2] (setting [7]) stood at 25.1 nM; on rat P2X7 [3] (setting [8]) it was 3.5 nM.

Regarding `Cc1nc2c(c(-c3ccn[nH]3)n1)CCN(C(=O)c1cccc(C(F)(F)F)c1Cl)C2` [Example 33, 7-{[2-Chloro-3-(trifluoromethyl)phenyl]carbonyl}-2-methyl-4-(1H-pyrazol-5-yl)-5,6,7,8-tetrahydropyrido[3,4-d]pyrimidine], the concentration for half-maximal inhibition (IC50) on P2X7 [1] was found to be 1120 nM; on P2X7 [4] it was 8 nM; on rat P2X7 [5] it was 1110 nM. For the same molecule, the Ki at P2X7 [2] (setting [7]) came out at 16.4 nM; at rat P2X7 [3] (setting [8]), 12 nM.

As for `Cc1nc2c(c(-c3[nH]ncc3F)n1)CCN(C(=O)c1cccc(C(F)(F)F)c1Cl)C2` [Example 35, 7-{[2-Chloro-3-(trifluoromethyl)phenyl]carbonyl}-4-(4-fluoro-1H-pyrazol-5-yl)-2-methyl-5,6,7,8-tetrahydropyrido[3,4-d]pyrimidine], the inhibition constant Ki at P2X7 [2] (setting [7]) was determined as 39.8 nM; at rat P2X7 [3] (setting [8]) it was 12.6 nM. The figures for the IC50 at P2X7 [4] and on rat P2X7 [5] were 48.3 nM and 269 nM, respectively.

On to `O=C(c1cccc(Cl)c1Cl)N1CCc2c(ncnc2-n2nccn2)C1` [Example 107, 7-[(2,3-Dichlorophenyl)carbonyl]-4-(2H-1,2,3-triazol-2-yl)-5,6,7,8-tetrahydropyrido[3,4-d]pyrimidine], for which the results for the IC50 at P2X7 [1], at P2X7 [4] and on rat P2X7 [5] were 1120 nM, 4.5 nM and 2480 nM, respectively. For the same molecule, the values for the Ki on P2X7 [2] (setting [7]) and on rat P2X7 [3] (setting [8]) were 9.5 nM and 24 nM, respectively.

The record behind these values is patent publication US9096596B2 (Janssen Pharmaceutica NV, priority 2013, dated 2015).
